This is an account of results in ChEMBL document CHEMBL1142525, “Molecular probes for imaging myelinated white matter in CNS” (J Med Chem, 2008).

By pKi is commonly meant −log10 of the Ki, conventionally taken in molar units. Higher therefore signals a low Ki. One may read the logD as lipophilicity at a set pH, counting ionised and neutral species. Lower therefore signals lower lipophilicity.

The species entered for one series is Rattus norvegicus. The series is described as follows: Binding affinity to Sprague-Dawley rat brain myelin fractions at 12.5 uM after 1 hr by UV spectrophotometry.
Series [1] in a line: Displacement of [3H]BMB from Sprague-Dawley rat brain myelin fractions. It is filed as tissue-based.
Series [2] relates to Brain. Kind of series: Drug uptake in Swiss Webster mouse brain at 0.185 MBq, iv after 60 mins. It is filed as ADME, organism-based. To be noted: in vivo, 1 h.
The subject of series [3] is Brain. Kind of series: Drug uptake in Swiss Webster mouse brain at 0.185 MBq, iv after 30 mins. It is filed as ADME, organism-based. The following applies: in vivo, 0.5 h.
For series [4], the system named is Brain. Kind of series: Drug uptake in Swiss Webster mouse brain at 0.185 MBq, iv after 120 mins. It is filed as ADME, organism-based. The following applies: in vivo, 2 h.
Series [5] is described as follows: Partition coefficient, log P in 1-octanol/phosphate buffer at pH 7.40. It counts as physicochemical. To be noted: pH 7.4.

SMILES strings stand for the structures. pKi: −log10 of the molar value. Active and inactive are the calls of the source. The calls are words filed in the database; no cut-off is given here.

On to `CNc1ccc(/C=C/c2ccc(N)cc2)cc1`, for which the result in the series filed under Rattus norvegicus was Active. The compound also showed a pKi in series [1] of 6.90.

`CN(C)c1ccc(/C=C/c2ccc(N)cc2)cc1`: the result in the series listed under Rattus norvegicus was Active. Moreover, the pKi in series [1] was 6.92.

Regarding `Nc1ccc(/C=C/c2ccc(N)cc2)cc1`, the pKi in series [1] was 6.43.

On to `Nc1ccc(/C=C/c2ccc(I)cc2)cc1`, for which, in series [1], the pKi is 6.31.

Consider `Nc1ccc(/C=C/c2ccc([125I])cc2)cc1`, for which the Drug uptake in the series on Brain [2] came to 2.05 % ID/g; with Brain [3] it was 2.65 % ID/g; with Brain [4], 1.12 % ID/g. The logD in series [5] was 2.5.
